Test results from patent publication US20060063784A1, “Method of using substituted pyrazolo [1,5-a] pyrimidines” (priority 2004, published 2006).
Where two headings read alike, the source gives them in different places.

Assays:
LoVo Colon cell line = assay: Cytotoxicity assay using LoVo colon cell line, SRB; format: cell-based; settings: read-out: Inhibition of LoVo
How it was run: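 Growth inhibition read by sulforhodamine B after 4-day compound exposure at 37 °C. Colon LoVo cells plated at 4000 per well in RPMI/10% FBS a day earlier; doses ranged 5 pM-20 μM or 170 pg/ml-10 μg/ml. IC50 is the concentration halving proliferation versus untreated wells.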

[1] = tested on: 80S14 (p21-deficient) cells; assay: Cytotoxicity assay using isogenic cell lines: IC50 in 80S14 (p21-deficient) cells, SRB; format: cell-based, human
How it was run: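 IC50 is the concentration halving proliferation relative to untreated controls, read from SRB absorbance (560 nm) after TCA fixation. Test agent dilutions (5 pM–50 μM or 170 pg/ml–10 μg/ml) were left on p21-deficient 80S14 cells (12,000/well, pre-incubated overnight) for 5 days at 37 °C.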

[2] = Homo sapiens, 96 h, LoVo colon cells, 4 days incubation, SRB
[3] = Homo sapiens, 120 h, 80S14 p21-deficient cells, 5 days incubation, SRB, read-out: IC50 for 80SI4
[4] = Homo sapiens, 96 h, Cellular activity in LoVo cell, 4 days incubation, SRB
[5] = Homo sapiens, 120 h, 80S14 (p21-deficient) cells, 5 days, SRB, class symbols, read-out: IC50 for 80S14

| Compound | IC50 (LoVo Colon cell line; [4]) [nM] | IC50 [1, 5] [µM] | other results |
| --- | --- | --- | --- |
| O=C(NCCc1ccccc1)Nc1cccc(-c2ccnc3c(C(=O)c4cccs4)cnn23)c1 [Example 2, N-(2-phenylethyl)-N′-{3-[3-(thien-2-ylcarbonyl)pyrazolo[1,5-a]pyrimidin-7-yl]phenyl}urea] | – | – | IC50 (LoVo Colon cell line; [2]): 100 to 1000 nM; IC50 [1, 3]: 1 to 10 µM |
| CC(C)C(=O)Nc1cccc(-c2ccnc3c(C(=O)c4cccs4)cnn23)c1 [Example 273, 2-Methyl-N-{3-[3-(2-thienylcarbonyl)pyrazolo[1,5-a]pyrimidin-7-yl]phenyl}propanamide] | – | – | IC50 (LoVo Colon cell line; Homo sapiens, LoVo, 96 h): 100 to 1000 nM; IC50 ([1]; Homo sapiens, 80S14, 120 h, read-out: IC50 for 80S14 (uM)): < 1 µM |
| {7-[3-(1-Ethyl-1H-pyrazol-3-yl)phenyl]pyrazolo[1,5-a]pyrimidin-3-yl (thien-2-yl)methanone [Example 518] | – | – | IC50 (LoVo Colon cell line; Cellular activity in LoVo cell, 4 days incubation, SRB): < 100 nM; IC50 ([1]; 80S14 (p21-deficient) cells, 5 days, SRB, class symbols, read-out: IC50 for 80S14): < 1 µM |
| CN(C)c1ccc(-c2ccnc3c(C(=O)c4cccs4)cnn23)cc1NC(=O)c1ccccc1Cl [Example 421, 2-Chloro-N-{2-(dimethylamino)-5-[3-(thien-2-ylcarbonyl)pyrazolo[1,5-a]pyrimidin-7-yl]phenyl}benzamide] | 100 to 1000 | < 1 | – |
| O=C(Nc1cccc(-c2ccnc3c(C(=O)c4cccs4)cnn23)c1)c1ccccn1 [Example 360, N-{3-[3-(Thien-2-ylcarbonyl)pyrazolo[1,5-a]pyrimidin-7-yl]phenyl}pyridine-2-carboxamide] | < 100 | < 1 | – |
| CC(C)CC(=O)Nc1cccc(-c2ccnc3c(-c4cccc(C=O)c4)cnn23)c1 [Example 487, N-{3-[3-(3-Formylphenyl)pyrazolo[1,5-a]pyrimidin-7-yl]phenyl}-3-methylbutanamide] | 1000 to 20000 | 10 to 50 | – |
| O=C(Nc1cccc(-c2ccnc3c(C(=O)c4cccs4)cnn23)c1)c1ccccc1C(F)(F)F [Example 96, N-{3-[3-(thien-2-ylcarbonyl)pyrazolo[1,5-a]pyrimidin-7-yl]phenyl}-2-(trifluoromethyl)benzamide] | – | – | IC50 (LoVo Colon cell line; [2]): < 100 nM; IC50 [1, 3]: < 1 µM |
| Cc1cc(-c2cccc(NC(=O)C3CCCC3)c2)n2ncc(C(=O)c3cccs3)c2n1 [Example 204, N-{3-[5-methyl-3-(thien-2-ylcarbonyl)pyrazolo[1,5-a]pyrimidin-7-yl]phenyl}cyclopentanecarboxamide] | – | – | IC50 (LoVo Colon cell line; [2]): 100 to 1000 nM; IC50 [1, 3]: < 1 µM |
| O=C(CCC(Cl)(Cl)Cl)Nc1cccc(-c2ccnc3c(C(=O)c4cccs4)cnn23)c1 [Example 354, 4,4,4-Trichloro-N-{3-[3-(thien-2-ylcarbonyl)pyrazolo[1,5-a]pyrimidin-7-yl]phenyl}butanamide] | < 100 | < 1 | – |
| O=C(CC1CCCCCC1)Nc1cccc(-c2ccnc3c(C(=O)c4cccs4)cnn23)c1 [Example 75, 2-cycloheptyl-N-{3-[3-(thien-2-ylcarbonyl)pyrazolo[1,5-a]pyrimidin-7-yl]phenyl}acetamide] | – | – | IC50 (LoVo Colon cell line; [2]): < 100 nM; IC50 [1, 3]: < 1 µM |
| CC(C)CC(=O)Nc1cncc(-c2ccnc3c(C(=O)c4cccs4)cnn23)c1 [Example 324, 3-Methyl-N-{5-[3-(2-thienylcarbonyl)pyrazolo[1,5-a]pyrimidin-7-yl]-3-pyridinyl}butanamide] | 100 to 1000 | 1 to 10 | – |
| O=C(Nc1cc(-c2ccnc3c(C(=O)c4cccs4)cnn23)ccc1F)c1ccccc1F [Example 375, 2-fluoro-N-{2-fluoro-5-[3-(thien-2-ylcarbonyl)pyrazolo[1,5-a]pyrimidin-7-yl]phenyl}benzamide] | < 100 | < 1 | – |
| CC/C=C/CNc1cccc(-c2ccnc3c(C(=O)c4cccs4)cnn23)c1 [Example 432, (7-{3-[(2E)-Pent-2-enylamino]phenyl}pyrazolo[1,5-a]pyrimidin-3-yl)(thien-2-yl)methanone] | < 100 | < 1 | – |
| CCCOC(=O)Nc1cccc(-c2c(C)cnc3c(C(=O)c4cccs4)cnn23)c1 [Example 208, propyl 3-[6-methyl-3-(thien-2-ylcarbonyl)pyrazolo[1,5-a]pyrimidin-7-yl]phenylcarbamate] | – | – | IC50 (LoVo Colon cell line; [2]): 100 to 1000 nM; IC50 [1, 3]: 10 to 50 µM |
| Nc1cccc(-c2cccc(-c3ccnc4c(C(=O)c5cccs5)cnn34)c2)c1 [Example 451, [7-(3′-Amino-1,1′-biphenyl-3-yl)pyrazolo[1,5-a]pyrimidin-3-yl](thien-2-yl)methanone] | 100 to 1000 | < 1 | – |
| Cc1cc(C)cc(-c2cnn3c(-c4cccc(-c5nnn[nH]5)c4)ccnc23)c1 [Example 491, 3-(3,5-Dimethylphenyl)-7-[3-(1H-tetraazol-5-yl)phenyl]pyrazolo[1,5-a]pyrimidine] | 1000 to 20000 | 1 to 10 | – |

| Compound | IC50 (LoVo Colon cell line; [4]) [nM] | IC50 [1, 5] [µM] | other results |
| --- | --- | --- | --- |
| CC(C)CC(=O)Nc1cccc(-c2ccnc3c(-c4cc(Cl)cc(Cl)c4)cnn23)c1 [Example 475, N-{3-[3-(3,5-Dichlorophenyl)pyrazolo[1,5-a]pyrimidin-7-yl]phenyl}-3-methylbutanamide] | 1000 to 20000 | 1 to 10 | – |
| Cc1cc(-c2cccc(NC(=O)Cc3cccs3)c2)n2ncc(C(=O)c3cccs3)c2n1 [Example 205, N-{3-[5-methyl-3-(thien-2-ylcarbonyl)pyrazolo[1,5-a]pyrimidin-7-yl]phenyl}-2-thien-2-ylacetamide] | – | – | IC50 (LoVo Colon cell line; [2]): 100 to 1000 nM; IC50 [1, 3]: 1 to 10 µM |
| O=C(Nc1cccc(-c2ccnc3c(C(=O)c4cccs4)cnn23)c1)OC1C=CCCC1 (stereo not shown) [Example 173, cyclohex-2-en-1-yl 3-[3-(thien-2-ylcarbonyl)pyrazolo[1,5-a]pyrimidin-7-yl]phenylcarbamate] | – | – | IC50 (LoVo Colon cell line; [2]): < 100 nM; IC50 [1, 3]: < 1 µM |
| O=C(c1cccs1)c1cnn2c(-c3cccc(-c4nnn(CCO)n4)c3)ccnc12 [Example 513, (7-{3-[2-(2-Hydroxyethyl)-2H-tetraazol-5-yl]phenyl}pyrazolo[1,5-a]pyrimidin-3-yl)(thien-2-yl)methanone] | 100 to 1000 | 1 to 10 | – |
| CC(C)CC(=O)Nc1cccc(-c2ccnc3c(-c4ccc(-c5ccccc5)cc4)cnn23)c1 [Example 486, N-{3-[3-(1,1′-Biphenyl-4-yl)pyrazolo[1,5-a]pyrimidin-7-yl]phenyl}-3-methylbutanamide] | 1000 to 20000 | 10 to 50 | – |
| CC(C)CC(=O)Nc1cccc(-c2ccnc3c(-c4cccc(C(F)(F)F)c4)cnn23)c1 [Example 477, 3-Methyl-N-(3-{3-[3-(trifluoromethyl)phenyl]pyrazolo[1,5-a]pyrimidin-7-yl}phenyl)butanamide] | 1000 to 20000 | 10 to 50 | – |
| O=C(Nc1cccc(-c2ccnc3c(C(=O)c4cccs4)cnn23)c1)OC1CCCC1 [Example 171, cyclopentyl 3-[3-(thien-2-ylcarbonyl)pyrazolo[1,5-a]pyrimidin-7-yl]phenylcarbamate] | – | – | IC50 (LoVo Colon cell line; [2]): < 100 nM; IC50 [1, 3]: < 1 µM |
| CC(C)NC(=S)Nc1cccc(-c2ccnc3c(C(=O)c4cccs4)cnn23)c1 [Example 389, N-Isopropyl-N′-{3-[3-(thien-2-ylcarbonyl)pyrazolo[1,5-a]pyrimidin-7-yl]phenyl}thiourea] | < 100 | < 1 | – |
| CC(C)CC(=O)Nc1cccc(-c2ccnc3c(-c4cccc(C#N)c4)cnn23)c1 [Example 482, N-{3-[3-(3-Cyanophenyl)pyrazolo[1,5-a]pyrimidin-7-yl]phenyl}-3-methylbutanamide] | 1000 to 20000 | 10 to 50 | – |
| CC(C)(C)CCNc1cccc(-c2ccnc3c(C(=O)c4cccs4)cnn23)c1 [Example 372, (7-{3-[(3,3-Dimethylbutyl)amino]phenyl}pyrazolo[1,5-a]pyrimidin-3-yl)(thien-2-yl)methanone] | < 100 | < 1 | – |
| CCC(C)C(C)CNc1cccc(-c2ccnc3c(C(=O)c4cccs4)cnn23)c1 (stereo not shown) [Example 430, (7-{3-[(2,3-Dimethylpentyl)amino]phenyl}pyrazolo[1,5-a]pyrimidin-3-yl)(thien-2-yl)methanone] | 100 to 1000 | 1 to 10 | – |
| CC(CC(=O)Nc1cc(-c2ccnc3c(C(=O)c4cccs4)cnn23)ccc1F)C(F)(F)F (stereo not shown) [Example 356, 4,4,4-Trifluoro-N-{2-fluoro-5-[3-(thien-2-ylcarbonyl)pyrazolo[1,5-a]pyrimidin-7-yl]phenyl}-3-methylbutanamide] | < 100 | < 1 | – |
| CC(C)CC(=O)Nc1cccc(-c2ccnc3c(-c4ccc(Oc5ccccc5)cc4)cnn23)c1 [Example 480, 3-Methyl-N-{3-[3-(4-phenoxyphenyl)pyrazolo[1,5-a]pyrimidin-7-yl]phenyl}butanamide] | 1000 to 20000 | 10 to 50 | – |
| O=C(O)c1cc(Cl)c(Cl)cc1C(=O)Nc1cccc(-c2ccnc3c(C(=O)c4cccs4)cnn23)c1 [Example 446, 4,5-Dichloro-2-[({3-[3-(thien-2-ylcarbonyl)pyrazolo[1,5-a]pyrimidin-7-yl]phenyl}amino)carbonyl]benzoic acid] | 1000 to 20000 | 10 to 50 | – |
| CCn1nnc(-c2cccc(-c3ccnc4c(-c5cc(C)cc(C)c5)cnn34)c2)n1 [Example 496, 3-(3,5-Dimethylphenyl)-7-[3-(2-ethyl-2H-tetrazol-5-yl)phenyl]pyrazolo[1,5-a]pyrimidine] | 100 to 1000 | 1 to 10 | – |
| Cc1cc(-c2cccc(NC(=O)NC(C)C)c2)n2ncc(C(=O)c3cccs3)c2n1 [Example 207, N-isopropyl-N′-{3-[5-methyl-3-(thien-2-ylcarbonyl)pyrazolo[1,5-a]pyrimidin-7-yl]phenyl}urea] | – | – | IC50 (LoVo Colon cell line; [2]): 100 to 1000 nM; IC50 [1, 3]: < 1 µM |
